{"source": "paper PMC6298115", "about": "“Design and in vitro realization of carbon-conserving photorespiration” (Proceedings of the National Academy of Sciences of the …, 2018)", "key": {"[1]": {"biological_target": "T1, RpPduP (Rhodopseudomonas palustris, UniProt Q21A49, P164G/I199R/N203L/I222L/L268I/P269T/V271T/L423H, form not given)", "T1 construct": "gene RPC_1174; N-terminal 6xHis, pET45a, expressed in E. coli BL21(DE3), Ni-NTA", "T1 sequence (Q21A49 entry or part of it P164G/I199R/N203L/I222L/L268I/P269T/V271T/L423H, form open)": "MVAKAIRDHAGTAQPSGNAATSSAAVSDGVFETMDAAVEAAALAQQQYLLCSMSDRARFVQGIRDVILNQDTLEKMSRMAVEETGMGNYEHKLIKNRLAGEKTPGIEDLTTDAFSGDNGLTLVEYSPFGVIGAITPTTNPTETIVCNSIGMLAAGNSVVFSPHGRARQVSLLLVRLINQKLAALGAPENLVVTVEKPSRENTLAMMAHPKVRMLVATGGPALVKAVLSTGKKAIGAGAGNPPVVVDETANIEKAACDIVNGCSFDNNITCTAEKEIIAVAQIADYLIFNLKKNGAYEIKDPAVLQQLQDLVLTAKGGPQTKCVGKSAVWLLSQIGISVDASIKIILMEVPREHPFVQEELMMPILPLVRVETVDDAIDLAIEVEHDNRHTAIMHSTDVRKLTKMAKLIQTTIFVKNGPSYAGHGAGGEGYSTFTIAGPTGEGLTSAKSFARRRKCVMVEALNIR", "assay": "NADPH oxidation, absorbance at […] nm", "format": "biochemical", "settings": "GCR, pH 8.0 Hepes, 37 °C, 5 mM MgCl2, Table 2 note numbers mutations +2, read-out: Engineered GCR"}, "[2]": {"biological_target": "T2, RpPduP (Rhodopseudomonas palustris, UniProt Q21A49)", "T2 construct": "gene RPC_1174; N-terminal 6xHis, pET45a, expressed in E. coli BL21(DE3), Ni-NTA", "T2 sequence (Q21A49 entry or part of it)": "as the sequence (Q21A49 entry or part of it P164G/I199R/N203L/I222L/L268I/P269T/V271T/L423H, form open) above, with G164P, R199I, L203N, L222I, I268L, T269P, T271V, H423L counted along it", "assay": "NADPH oxidation, absorbance at […] nm", "format": "biochemical", "settings": "pH 8.0 Hepes, 37 °C, 5 mM MgCl2"}, "[3]": {"biological_target": "T1, RpPduP", "assay": "NADH oxidation, absorbance at […] nm", "format": "biochemical", "settings": "GCR; saturating acetyl-CoA; pH 8.0 Hepes, 37 °C, 5 mM MgCl2; Table 2 note numbers mutations +2; read-out: Engineered GCR"}, "[4]": {"biological_target": "T2, RpPduP", "assay": "NADH oxidation, absorbance at […] nm", "format": "biochemical", "settings": "pH 8.0 Hepes, 37 °C, 5 mM MgCl2"}, "[5]": {"substrate": "CC(=O)O", "assay": "purified protein", "settings": "1 mM CoA, 2.5 mM ATP, 5 mM MgCl2, 1 mM DTT, pH 8.0 Hepes, 37 °C"}}}
{"molecule": "NC(=O)C1=CN([C@@H]2O[C@H](COP(=O)(O)OP(=O)(O)OC[C@H]3O[C@@H](n4cnc5c(N)ncnc54)[C@H](OP(=O)(O)O)[C@@H]3O)[C@@H](O)[C@H]2O)C=CC1", "note": "[NADPH]", "values": [{"measurement": "Km", "setting": "[1]; saturating glycolyl-CoA", "value": "240 ± 60", "unit": "µM"}, {"measurement": "Km", "setting": "[2]; saturating glycolyl-CoA", "value": "370 ± 90", "unit": "µM"}]}
{"molecule": "NC(=O)C1=CN([C@@H]2O[C@H](COP(=O)(O)OP(=O)(O)OC[C@H]3O[C@@H](n4cnc5c(N)ncnc54)[C@H](O)[C@@H]3O)[C@@H](O)[C@H]2O)C=CC1", "note": "[NADH]", "values": [{"measurement": "Km", "setting": "[3]", "value": "70 ± 10", "unit": "µM"}, {"measurement": "Km", "setting": "[4]; saturating acetyl-CoA", "value": "120 ± 30", "unit": "µM"}]}
{"molecule": "CC(=O)SCCNC(=O)CCNC(=O)[C@H](O)C(C)(C)COP(=O)(O)OP(=O)(O)OC[C@H]1O[C@@H](n2cnc3c(N)ncnc32)[C@H](O)[C@@H]1OP(=O)(O)O", "note": "[acetyl-CoA]", "values": [{"measurement": "Km", "setting": "[1]; saturating NADPH", "value": "220 ± 60", "unit": "µM"}, {"measurement": "Km", "setting": "[2]; saturating NADPH", "value": "220 ± 20", "unit": "µM"}]}
{"molecule": "CC(C)(COP(=O)(O)OP(=O)(O)OC[C@H]1O[C@@H](n2cnc3c(N)ncnc32)[C@H](O)[C@@H]1OP(=O)(O)O)[C@@H](O)C(=O)NCCC(=O)NCCSC(=O)CO", "note": "[glycolyl-CoA]", "values": [{"measurement": "Km", "setting": "[4]; saturating NADH", "value": "220 ± 120", "unit": "µM"}, {"measurement": "Km", "setting": "[1]; saturating NADPH", "value": "240 ± 20", "unit": "µM"}]}
{"molecule": "EcACS (Escherichia coli K-12) (protein) MSQIHKHTIPANIADRCLINPQQYEAMYQQSINVPDTFWGEQGKILDWIKPYQKVKNTSFAPGNVSIKWYEDGTLNLAANCLDRHLQENGDRTAIIWEGDDASQSKHISYKELHRDVCRFANTLLELGIKKGDVVAIYMPMVPEAAVAMLACARIGAVHSVIFGGFSPEAVAGRIIDSNSRLVITSDEGVRAGRSIPLKKNVDDALKNPNVTSVEHVVVLKRTGGKIDWQEGRDLWWHDLVEQASDQHQAEEMNAEDPLFILYTSGSTGKPKGVLHTTGGYLVYAALTFKYVFDYHPGDIYWCTADVGWVTGHSYLLYGPLACGATTLMFEGVPNWPTPARMAQVVDKHQVNILYTAPTAIRALMAEGDKAIEGTDRSSLRILGSVGEPINPEAWEWYWKKIGNEKCPVVDTWWQTETGGFMITPLPGATELKAGSATRPFFGVQPALVDNEGNPLEGATEGSLVITDSWPGQARTLFGDHERFEQTYFSTFKNMYFSGDGARRDEDGYYWITGRVDDVLNVSGHRLGTAEIESALVAHPKIAEAAVVGIPHNIKGQAIYAYVTLNHGEEPSPELYAEVRNWVRKEIGPLATPDVLHWTDSLPKTRSGKIMRRILRKIAAGDTSNLGDTSTLADPGVVEKLLEEKQAIAMPS", "values": [{"measurement": "Km", "setting": "[5]", "value": "87 ± 4", "unit": "µM"}, {"measurement": "kcat", "setting": "[5]", "value": 13.5, "unit": "s⁻¹"}, {"measurement": "kcat/Km", "setting": "[5]", "value": 155000, "unit": "M⁻¹ s⁻¹"}]}
